Laboratory results reported in PubChem BioAssay (NCI).
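Compound exposure: 48 hours, 5 concentrations, 96-well plates. GI50 = concentration required for 50% inhibition of growth. TGI denotes the concentration required for complete inhibition of growth.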

Legend:
Test in all cases: DTP human tumour cell line panel, 48 h
[1] = system: HOP-62 NSCLC
[2] = system: MALME-3M melanoma
[3] = system: IGROV1 ovarian
[4] = system: EKVX NSCLC
[5] = system: SNB-75 CNS
[6] = system: SF-539 CNS
[7] = system: OVCAR-8 ovarian
[8] = system: UACC-62 melanoma
[9] = system: MOLT-4 leukemia
[10] = system: HS 578T breast

With `CCC(C)C(N)C(=O)NC(CC(N)=O)C(=O)NC(CC(C)C)C(=O)NC(CCCCN)C(=O)NC(C)C(=O)NC(CC(C)C)C(=O)NC(C)C(=O)NC(C)C(=O)NC(CC(C)C)C(=O)NC(C)C(=O)NC(CCCCN)C(=O)NC(CCCCN)C(=O)NC(C(=O)NC(CC(C)C)C(N)=O)C(C)CC` (stereo unspecified) the TGI [1] was 8.55 µM, the TGI [2] was 10.7 µM and the TGI [3] was 34.4 µM. It also gave a TGI [4] of 18.7 µM, a TGI [5] of 14 µM and a TGI [6] of 11.3 µM. For the same compound, the TGI [7] was 34.3 µM, the TGI [8] was 13.8 µM and the TGI [9] was 38.5 µM.

With `O=c1c2ccccc2[nH]n1Cc1ccccc1` the TGI [1] was greater than 100 µM, the TGI [3] was greater than 100 µM and the TGI [4] was greater than 100 µM. It also gave a TGI [5] greater than 100 µM, a TGI [6] greater than 100 µM and a TGI [7] greater than 100 µM. It also gave a TGI [8] greater than 100 µM, a TGI [10] greater than 100 µM and a TGI [9] greater than 100 µM.

`COc1cc(OC)cc(-c2ccc(-c3ccc(C(=N)N)cn3)o2)c1` was tested, and the GI50 [2] was 1.82 µM, the TGI [2] was 3.49 µM and the GI50 [3] was 1.81 µM. The TGI [3] was 3.38 µM, the GI50 [5] was 1.48 µM and the TGI [5] was 2.85 µM. For the same compound, the GI50 [6] was 1.55 µM, the TGI [6] was 2.9 µM and the GI50 [8] was 1.77 µM. The TGI [8] was 3.29 µM, the GI50 [10] was 1.66 µM and the TGI [10] was 3.58 µM. It also gave a GI50 [9] of 1.74 µM and a TGI [9] of 3.59 µM.

`Cc1[nH]c(=O)[nH]c(=O)c1/C=C/C(=O)O` (tested in a mixture with another compound) was tested, and the TGI [1] was greater than 625 µM, the TGI [2] was greater than 625 µM and the TGI [3] was greater than 625 µM. For the same compound, the TGI [4] was greater than 625 µM, the TGI [5] was greater than 625 µM and the TGI [6] was greater than 625 µM. It also gave a TGI [7] greater than 568 µM, a TGI [8] greater than 625 µM and a TGI [9] greater than 625 µM.

For `OC1c2ccccc2CCC1CN1CCN(CCOC(c2ccc(F)cc2)c2ccc(F)cc2)CC1` (stereo unspecified), the TGI [1] was 60.5 µM, the TGI [2] was 32.4 µM and the TGI [3] was 61.9 µM. The TGI [5] was 70.5 µM, the TGI [6] was 20.1 µM and the TGI [7] was 28.5 µM. The TGI [8] was 27.7 µM, the TGI [10] was 45.8 µM and the TGI [9] was greater than 100 µM.

Work on `CSCC[C@@H]1C(=O)N(C)[C@H](C(C)(C)C)N1C(=O)c1ccccc1` yielded a TGI [1] greater than 100 µM, a TGI [2] greater than 100 µM and a TGI [3] greater than 100 µM. It also gave a TGI [4] greater than 100 µM, a TGI [5] greater than 100 µM and a TGI [6] greater than 100 µM. For the same compound, the TGI [7] was greater than 100 µM, the TGI [8] was greater than 100 µM and the TGI [9] was greater than 100 µM.

Compound `CSc1nc(C)cc(Nc2ccc(O)c(CN3CCOCC3)c2)n1` has a TGI [1] greater than 100 µM, a TGI [2] greater than 100 µM and a TGI [3] greater than 100 µM. For the same compound, the TGI [4] was greater than 100 µM, the TGI [5] was greater than 100 µM and the TGI [6] was greater than 100 µM. For the same compound, the TGI [7] was greater than 100 µM, the TGI [8] was greater than 100 µM and the TGI [10] was greater than 100 µM. For the same compound, the TGI [9] was greater than 100 µM.

`N#CC(N=Nc1ccccc1C(=O)O)C(N)=O` (stereo unspecified) showed a TGI [1] greater than 100 µM, a TGI [2] greater than 100 µM and a TGI [4] greater than 100 µM. For the same compound, the TGI [5] was greater than 100 µM, the TGI [8] was greater than 100 µM and the TGI [9] was greater than 100 µM.

For `COc1cc2c3cc1Oc1c(O)c(OC)cc4c1C(Cc1ccc(O)c(c1)Oc1ccc(cc1)CC3N(C)CC2)N(C)CC4` (stereo unspecified), the TGI [1] was 33.8 µM, the TGI [2] was 32.8 µM and the TGI [3] was 56.1 µM. The TGI [4] was 37.1 µM, the TGI [5] was 35.3 µM and the TGI [6] was 5.8 µM. It also gave a TGI [7] of 28.4 µM, a TGI [8] of 42.9 µM and a TGI [9] of 30.8 µM.

`CC(CC(N)C(=O)O)C(=O)O` (stereo unspecified) gave a TGI [1] greater than 100 µM, a TGI [2] greater than 100 µM and a TGI [3] greater than 100 µM. For the same compound, the TGI [4] was greater than 100 µM, the TGI [7] was greater than 100 µM and the TGI [8] was greater than 100 µM. For the same compound, the TGI [10] was greater than 100 µM and the TGI [9] was greater than 100 µM.

`COc1cccc(/C=N/NC(=O)CSCC(=O)N/N=C/c2cccc(OC)c2OC)c1OC` gave a TGI [1] greater than 100 µM, a TGI [2] greater than 100 µM and a TGI [3] greater than 100 µM. The TGI [4] was greater than 100 µM, the TGI [5] was greater than 100 µM and the TGI [6] was greater than 100 µM. The TGI [7] was greater than 100 µM, the TGI [8] was greater than 100 µM and the TGI [10] was greater than 100 µM. It also gave a TGI [9] greater than 100 µM.

Compound `CN(C)c1ccc(/C=C/c2ccc(S(N)(=O)=O)cc2)cc1` has a TGI [1] of 36.6 µM, a TGI [2] of 37.6 µM and a GI50 [3] of 13.4 µM. The TGI [3] was 33.4 µM, the TGI [4] was 52.5 µM and the TGI [5] was 62.6 µM. For the same compound, the GI50 [6] was 11.7 µM, the TGI [6] was 25.6 µM and the GI50 [7] was 4.95 µM. It also gave a TGI [7] of 27.5 µM, a GI50 [10] of 3.03 µM and a TGI [10] of 12.6 µM. For the same compound, the GI50 [9] was greater than 100 µM and the TGI [9] was greater than 100 µM.

`CC1(C)[C@@H]2CC[C@]1(C)[C@H](OC(=O)/C=C/c1ccccc1)C2` showed a TGI [1] of 63.1 µM, a TGI [2] of 38.5 µM and a TGI [3] of 51.8 µM. It also gave a TGI [4] of 41.8 µM, a TGI [5] of 33.3 µM and a TGI [6] of 35.9 µM. The TGI [7] was 36.5 µM, the TGI [8] was 57.5 µM and the TGI [10] was 41.7 µM.

Work on `COc1nc2cccc(C(O)c3ccccc3)c2nc1-c1ccccc1` (stereo unspecified) yielded a TGI [1] of 19.1 µM, a TGI [2] greater than 100 µM and a TGI [3] of 44.6 µM. It also gave a TGI [4] of 41.9 µM, a TGI [5] greater than 100 µM and a TGI [6] of 8.23 µM. The TGI [7] was greater than 100 µM, the TGI [8] was 23.9 µM and the TGI [10] was 5.62 µM. For the same compound, the TGI [9] was 34.7 µM.

Work on `O=C1C=CC2OC(c3ccccc3)C(O)C2O1` (stereo unspecified) yielded a TGI [1] of 26 µM, a TGI [2] of 11.3 µM and a TGI [3] of 29.1 µM. The TGI [4] was 15.4 µM, the TGI [5] was 31 µM and the TGI [6] was 14.1 µM. It also gave a TGI [7] of 20.2 µM, a TGI [8] of 20.9 µM and a TGI [9] of 4.41 µM.

Compound `COc1cc(C(=O)O[C@H](C(=O)NCCCNC(=O)[C@@H](OC(=O)c2cc(OC)cc3c(C)cccc23)[C@]2(C)CO2)[C@]2(C)CO2)c2cccc(C)c2c1` has a GI50 [4] of 0.0885 µM, a TGI [4] of 1.61 µM and a TGI [5] of 0.381 µM. It also gave a GI50 [6] of less than 0.0268 µM, a TGI [6] of 0.138 µM and a GI50 [8] of 0.962 µM. It also gave a TGI [8] of 2.14 µM, a GI50 [10] of 0.206 µM and a GI50 [9] of less than 0.01 µM. It also gave a TGI [9] of less than 0.01 µM.

`CC(=O)c1[nH]c(NC(C)C)c(C(=S)Nc2ccccc2)c1N` gave a TGI [1] greater than 100 µM, a TGI [2] of 89.2 µM and a TGI [3] greater than 100 µM. The TGI [4] was greater than 100 µM, the TGI [5] was greater than 100 µM and the TGI [6] was greater than 100 µM. For the same compound, the TGI [7] was 94.9 µM, the TGI [8] was 53.8 µM and the TGI [10] was greater than 100 µM. The TGI [9] was greater than 100 µM.

`Cc1c[n+]2c3ccccc3c3ccccc3c2s1` showed a TGI [1] of 28 µM, a TGI [2] of 7.87 µM and a TGI [3] greater than 100 µM. For the same compound, the TGI [4] was greater than 100 µM, the TGI [5] was 12.1 µM and the TGI [6] was 16.6 µM. For the same compound, the TGI [7] was 28.8 µM, the TGI [8] was greater than 47.1 µM and the TGI [9] was 13.4 µM.

For `C=CCN1/C(=C(\C#N)c2nc3ccccc3[nH]2)Sc2c1nc[nH]c2=O`, the TGI [1] was greater than 100 µM, the TGI [2] was greater than 100 µM and the TGI [3] was greater than 100 µM. For the same compound, the TGI [4] was greater than 100 µM, the TGI [5] was greater than 100 µM and the TGI [6] was greater than 100 µM. It also gave a TGI [7] greater than 100 µM, a TGI [8] greater than 100 µM and a TGI [9] greater than 100 µM.

With `OCC1COc2cc(Cl)c(Cl)cc2O1` (stereo unspecified) the TGI [1] was greater than 10 µM, the TGI [2] was greater than 10 µM and the TGI [3] was greater than 10 µM. For the same compound, the TGI [4] was greater than 10 µM, the TGI [5] was greater than 10 µM and the TGI [6] was greater than 10 µM. The TGI [7] was greater than 10 µM, the TGI [8] was greater than 10 µM and the TGI [10] was greater than 10 µM. The TGI [9] was greater than 10 µM.

Compound `COc1cc(C2c3cc4c(cc3[C@@H](Nc3cccc(CO)c3)C3COC(=O)[C@H]23)OCO4)cc(OC)c1O` (stereo partly specified) has a TGI [1] of 0.556 µM, a TGI [2] of 11.4 µM and a TGI [3] of 17 µM. The TGI [4] was 19.8 µM, the TGI [5] was greater than 24.7 µM and the TGI [6] was 1.99 µM. For the same compound, the TGI [7] was 16.2 µM, the TGI [8] was 2.76 µM and the TGI [9] was 0.185 µM.
